Experimental data: patent publication US20240150356A1, “Pyrimidine amide compounds and use thereof” (ALPHALA CO., LTD., priority 2019, published 2024)

Test system: Hep3B cells (hepatocellular carcinoma cell line)
Test: In vitro MTS cell viability assay (NCI-60 methodology), Hep3B
Format: cell-based
Conditions: Homo sapiens, 48 h, Table 1, MTS, 2 days drug incubation, 50% reduction vs time zero, read-out: Hep3B LC50
Summary of the method: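 Hep3B cells given five 2-fold dilutions of compound for 2 days, with viability by MTS measured at time zero and at end. LC50 is the concentration giving a 50% fall in viable cells relative to the start of treatment, per NCI-60 formula.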

Compound	LC50
Cn1ncc2c(NC(=O)c3ccc([N+](=O)[O-])s3)nc(Oc3cccc(C(F)(F)F)c3)nc21 [Compound 1-18, N-(1-methyl-6-(3-(trifluoromethyl)phenoxy)-1H-pyrazolo[3,4-d]pyrimidin-4-yl)-5-nitrothiophene-2-carboxamide]	1.99 µM
Cn1ncc2c(NC(=O)c3ccc([N+](=O)[O-])s3)nc(-c3ccccc3OC(F)(F)F)nc21 [Compound 1-8, N-(1-methyl-6-(2-(trifluoromethoxy)phenyl)-1H-pyrazolo[3,4-d]pyrimidin-4-yl)-5-nitrothiophene-2-carboxamide]	2.53 µM
CC(C)(C)c1ccc(-c2nc(NC(=O)c3ccc([N+](=O)[O-])s3)c3cnn(C(C)(C)C)c3n2)cc1 [Compound 1-25, N-(1-(tert-butyl)-6-(4-(tert-butyl)phenyl)-1H-pyrazolo[3,4,d]pyrimidin-4-yl)-5-nitrothiophene-2-carboxamide]	4.11 µM

Same assay, conditions: Homo sapiens, 48 h, Table 4, MTS, 2 days drug incubation, 50% reduction vs time zero, read-out: Hep3B LC50

Compound	LC50
O=C(Nc1nc(-c2cc(C(F)(F)F)ccc2F)nc2c(-c3ccccc3)csc12)c1ccc([N+](=O)[O-])s1 [Compound 4-17, N-(2-(2-fluoro-5-(trifluoromethyl)phenyl)-7-phenylthieno[3,2-d]pyrimidin-4-yl)-5-nitrothiophene-2-carboxamide]	0.86 µM

Same assay, conditions: Homo sapiens, 48 h, Table 5, MTS, 2 days drug incubation, 50% reduction vs time zero, read-out: Hep3B LC50

Compound	LC50
O=C(Nc1nc(Oc2ccccc2)nc2c1cnn2-c1ccccc1)c1ccc([N+](=O)[O-])s1 [Compound 5-13, 5-nitro-N-(6-phenoxy-1-phenyl-1H-pyrazolo[3,4-d]pyrimidin-4-yl)thiophene-2-carboxamide]	> 5 µM
O=C(Nc1nc(-c2ccsc2)nc2c1cnn2-c1ccccc1)c1ccc([N+](=O)[O-])s1 [Compound 5-20, 5-nitro-N-(1-phenyl-6-(thiophen-3-yl)-1H-pyrazolo[3,4-d]pyrimidin-4-yl)thiophene-2-carboxamide]	1.11 µM
C[C@@H]1CN(c2nc(NC(=O)c3ccc([N+](=O)[O-])s3)c3cnn(-c4ccccc4)c3n2)C[C@H](C)O1 [Compound 5-8, N-(6-((2S,6R)-2,6-dimethylmorpholino)-1-phenyl-1H-pyrazolo[3,4-d]pyrimidin-4-yl)-5-nitrothiophene-2-carboxamide]	1.71 µM
O=C(Nc1nc(-c2cccc(F)c2)nc2c1cnn2-c1ccccc1)c1ccc([N+](=O)[O-])s1 [Compound 5-26, N-(6-(3-fluorophenyl)-1-phenyl-1H-pyrazolo[3,4-d]pyrimidin-4-yl)-5-nitrothiophene-2-carboxamide]	0.41 µM
N#C[C@@H]1CCN(c2nc(NC(=O)c3ccc([N+](=O)[O-])s3)c3cnn(-c4ccccc4)c3n2)C1 [Compound 5-5, (R)—N-(6-(3-cyanopyrrolidin-1-yl)-1-phenyl-1H-pyrazolo[3,4-d]pyrimidin-4-yl)-5-nitrothiophene-2-carboxamide]	0.5 µM

Same assay, conditions: Homo sapiens, 48 h, Table 6, MTS, 2 days drug incubation, 50% reduction vs time zero, read-out: Hep3B LC50

Compound	LC50
CCOCCOCCOc1ccc(-c2nc(NC(=O)c3ccc([N+](=O)[O-])s3)c3cnn(-c4ccc(C(C)(C)C)cc4)c3n2)cn1 [Compound 6-83, N-(1-(4-(ter-butyl)phenyl)-6-(6-(2-(2-ethoxyethoxy)ethoxy)pyridin-3-yl)-1H-pyrazolo[3,4-d]pyrimidin-4-yl)-5-nitrothiophene-2-carboxamide]	0.41 µM
O=C(Nc1nc(-c2ccc3c(c2)OCO3)nc2c1cnn2-c1ccc(Cl)cc1)c1ccc([N+](=O)[O-])s1 [Compound 6-50, N-(6-(benzo[d][1,3]dioxol-5-yl)-1(4-chlorophenyl)-1H-pyrazolo[3,4-d]pyrimidin-4-yl)-5-nitrothiophene-2-carboxamide]	0.16 µM
C[C@@H]1CN(c2nc(NC(=O)c3ccc([N+](=O)[O-])s3)c3cnn(-c4ccc(F)cc4)c3n2)C[C@H](C)O1 [Compound 6-99, N-(6-((2S,6R)-2,6-dimethylmorpholino)-1-(4-fluorophenyl)-1H-pyrazolo[3,4-d]pyrimidin-4-yl)-5-nitrothiophene-2-carboxamide]	0.61 µM
O=C(Nc1nc(-c2ccc(C(F)(F)F)cc2)nc2c1cnn2-c1ccc(OC(F)(F)F)cc1)c1ccc([N+](=O)[O-])s1 [Compound 6-88, 5-nitro-N-(1-(4-(trifluoromethoxy)phenyl)-6-(4-(trifluormethyl)phenyl)-1H-pyrazolo[3,4-d]pyrimidin-4-yl)thiophene-2-carboxamide]	0.42 µM
O=C(Nc1nc(N2CCC[C@H]2CO)nc2c1cnn2-c1ccc(F)cc1)c1ccc([N+](=O)[O-])s1 [Compound 6-102, (S)—N-(1-(4-fluorophenyl)-6-(2-(hydroxymethyl)pyrrolidin-1-yl)-1H-pyrazolo[3,4-d]pyrimidin-4-yl)-5-nitrothiophene-2-carboxamide]	1.3 µM
CC(C)(C)c1ccc(-n2ncc3c(NC(=O)c4ccc([N+](=O)[O-])s4)nc(OCCN4CCOCC4)nc32)cc1 [Compound 6-60, N-(1-(4-(tert-butyl)phenyl)-6-(2-morpholinoethoxy)-1H-pyrazolo[3,4-d]pyrimidin-4-yl)-5-nitrothiophene-2-carboxamide]	0.89 µM
Cc1ccc(-n2ncc3c(NC(=O)c4ccc([N+](=O)[O-])s4)nc(-c4ccc5c(c4)OCO5)nc32)cc1 [Compound 6-9]	0.4 µM
CC(C)(C)c1ccc(-n2ncc3c(NC(=O)c4ccc([N+](=O)[O-])s4)nc(N4CCC[C@H]4C(=O)O)nc32)cc1 [Compound 6-70, (1-(4-(tert-butyl)phenyl)-4-(5-nitrothiophene-2-carboxamido)-1H-pyrazolo[3,4-d]pyrimidin-6-yl)-L-proline]	> 1.25 µM
O=C(Nc1nc(-c2cccc(Cl)c2)nc2c1cnn2-c1cccc(Cl)c1)c1ccc([N+](=O)[O-])s1 [Compound 6-37, N-(1,6-bis(3-chlorophenyl)-1H-pyrazolo[3,4-d]pyrimidin-4-yl)-5-nitrothiophene-2-carboxamide]	0.23 µM
COC(=O)[C@@H]1CCCN1c1nc(NC(=O)c2ccc([N+](=O)[O-])s2)c2cnn(-c3cccc(Cl)c3)c2n1 [Compound 6-32, methyl (1-(3-chlorophenyl)-4-(5-nitrothiophene-2-carboxamido)-1H-pyrazolo[3,4-d]pyrimidin-6-yl)-L-prolinate]	0.56 µM

Same assay, conditions: Homo sapiens, 48 h, Table 7, MTS, 2 days drug incubation, 50% reduction vs time zero, read-out: Hep3B LC50

Compound	LC50
C=CC(=O)Nc1ccc(-n2ncc3c(NC(=O)c4ccc([N+](=O)[O-])s4)nc(-c4ccc(F)cc4)nc32)cc1 [Compound 7-19, N-(1-(4-acrylamidophenyl)-6-(4-fluorophenyl)-1H-pyrazolo[3,4-d]pyrimidin-4-yl)-5-nitrothiophene-2-carboxamide]	0.19 µM
O=C(Nc1nc(-c2ccc(F)cc2)nc2c1cnn2-c1ccc(Cl)cc1Cl)c1ccc([N+](=O)[O-])s1 [Compound 7-9]	0.37 µM
CCOCCOCCOc1ccc(-c2nc(NC(=O)c3ccc([N+](=O)[O-])s3)c3cnn(-c4ccc(C(F)(F)F)cn4)c3n2)cn1 [Compound 7-7, N-(6-(6-(2-(2-ethoxyethoxy)ethoxy)pyridin-3-yl)-1-(5-(trifluoromethyl)pyridin-2-yl)-1H-pyrazolo[3,4-d]pyrimidin-4-yl)-5-nitrothiophene-2-carboxamide]	0.5 µM
O=C(Nc1nc(-c2ccc(F)nc2)nc2c1cnn2-c1ccc(Cl)cc1Cl)c1ccc([N+](=O)[O-])s1 [Compound 7-10]	> 1.25 µM

Same assay, conditions: Homo sapiens, 48 h, Table 9, MTS, 2 days drug incubation, 50% reduction vs time zero, read-out: Hep3B LC50

Compound	LC50
COCCOC(=O)N1CCC(n2ncc3c(NC(=O)c4ccc([N+](=O)[O-])s4)nc(-c4ccc(Cl)cc4)nc32)CC1 [Compound 9-12, 2-methoxyethyl 4-(6-(4-chlorophenyl)4-(5-nitrothiophene-2-carboxamido)-1H-pyrazolo[3,4-d]pyrimidin-1-yl)piperidine-1-carboxylate]	1.86 µM

Same assay, conditions: Homo sapiens, 48 h, Table 10, MTS, 2 days drug incubation, 50% reduction vs time zero, read-out: Hep3B LC50

Compound	LC50
CC1CC(C)CC(n2ncc3c(NC(=O)c4ccc([N+](=O)[O-])s4)nc(-c4ccc(F)nc4)nc32)C1 (stereo not drawn) [Compound 10-68, N-(1-(3,5-dimethylcyclohexyl)-6-(6-fluoropyridin-3-yl)-1H-pyrazolo[3,4-d]pyrimidin-4-yl)-5-nitrothiophene-2-carboxamide]	0.97 µM
CC1CC(C)CC(n2ncc3c(NC(=O)c4ccc([N+](=O)[O-])s4)nc(-c4ccc(F)cc4)nc32)C1 (stereo not drawn) [Compound 10-67, N-(1-(3,5-dimethylcyclohexyl)-6-(4-fluorophenyl)-1H-pyrazolo[3,4-d]pyrimidin-4-yl)-5-nitrothiophene-2-carboxamide]	0.65 µM
CS(=O)(=O)c1ccc(-c2nc(NC(=O)c3ccc([N+](=O)[O-])s3)c3cnn(C4CCCCC4)c3n2)cc1 [Compound 10-34, N-(1-cyclohexyl-6-(4-(methylsulfonyl)phenyl)-1H-pyrazolo[3,4-d]pyrimidin-4-yl)-5-nitrothiophene-2-carboxamide]	0.93 µM
COCCOc1ccc(-c2nc(NC(=O)c3ccc([N+](=O)[O-])s3)c3cnn(C4CCCCC4)c3n2)cn1 [Compound 10-51, N-(1-cyclohexyl-6-(6-(2-methoxyethoxy)pyridin-3-yl)-1H-pyrazolo[3,4-d]pyrimidin-4-yl)-5-nitrothiophene-2-carboxamide]	0.96 µM
O=C(Nc1nc(N2CCC(F)(F)C2)nc2c1cnn2C1CCCCC1)c1ccc([N+](=O)[O-])s1 [Compound 10-1, N-(1-cyclohexyl-6-(3,3-difluoropyrrolidin-1-yl)-1H-pyrazolo[3,4-d]pyrimidin-4-yl)-5-nitrothiophene-2-carboxamide]	1.25 µM
O=C(Nc1nc(N2CCC(F)(F)CC2)nc2c1cnn2C1CCCCC1)c1ccc([N+](=O)[O-])s1 [Compound 10-2, N-(1-cyclohexyl-6-(4,4-difluoropiperidin-1-yl)-1H-pyrazolo[3,4-d]pyrimidin-4-yl)-5-nitrothiophene-2-carboxamide]	3.12 µM
